Reference: PubChem BioAssay AID651601 (Sanford-Burnham Center for Chemical Genomics, 2012)

Columns and labels:
Test in all cases: chemokine receptor panel antagonism: CCR6, CXCR5, CXCR6, profiling panel, selectivity assay for CXCR6 antagonist project, cell-based, CHO-K1 PathHunter beta-arrestin, luminescence (AID 651601)
Settings in all cases: antagonist mode
[1] = target: C-X-C chemokine receptor type 5 (Homo sapiens) (UniProt P32302)
[2] = target: C-X-C chemokine receptor type 6 (Homo sapiens) (UniProt O00574)
[3] = target: C-C chemokine receptor type 6 (Homo sapiens) (UniProt P51684)
[4] = CXCR5, mean of runs, mean IC50 across replicates
[5] = CXCR6, mean of runs, mean IC50 across replicates
[6] = CCR6, mean of runs, mean IC50 across replicates

Chain of C-X-C chemokine receptor type 5 (Homo sapiens) (P32302 whole entry, looked up): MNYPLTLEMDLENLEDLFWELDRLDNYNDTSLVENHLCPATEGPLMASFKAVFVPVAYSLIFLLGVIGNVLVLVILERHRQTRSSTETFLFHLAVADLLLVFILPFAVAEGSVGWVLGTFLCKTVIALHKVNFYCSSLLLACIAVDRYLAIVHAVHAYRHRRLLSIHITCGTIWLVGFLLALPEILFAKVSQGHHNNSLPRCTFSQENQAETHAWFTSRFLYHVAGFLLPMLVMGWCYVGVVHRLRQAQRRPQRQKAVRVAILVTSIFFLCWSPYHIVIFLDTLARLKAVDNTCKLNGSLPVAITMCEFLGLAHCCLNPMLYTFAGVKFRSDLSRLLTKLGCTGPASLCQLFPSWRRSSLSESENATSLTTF
Chain of C-X-C chemokine receptor type 6 (Homo sapiens) (O00574 whole entry, looked up): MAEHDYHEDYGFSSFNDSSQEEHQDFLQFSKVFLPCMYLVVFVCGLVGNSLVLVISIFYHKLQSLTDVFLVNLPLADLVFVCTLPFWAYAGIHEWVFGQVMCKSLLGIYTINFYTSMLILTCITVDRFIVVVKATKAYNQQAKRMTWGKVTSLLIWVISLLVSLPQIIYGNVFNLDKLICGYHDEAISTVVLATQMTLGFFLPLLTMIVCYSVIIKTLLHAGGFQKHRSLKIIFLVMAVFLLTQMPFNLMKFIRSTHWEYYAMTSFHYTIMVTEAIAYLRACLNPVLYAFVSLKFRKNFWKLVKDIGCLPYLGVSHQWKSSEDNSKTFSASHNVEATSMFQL
Chain of C-C chemokine receptor type 6 (Homo sapiens) (P51684 whole entry, looked up): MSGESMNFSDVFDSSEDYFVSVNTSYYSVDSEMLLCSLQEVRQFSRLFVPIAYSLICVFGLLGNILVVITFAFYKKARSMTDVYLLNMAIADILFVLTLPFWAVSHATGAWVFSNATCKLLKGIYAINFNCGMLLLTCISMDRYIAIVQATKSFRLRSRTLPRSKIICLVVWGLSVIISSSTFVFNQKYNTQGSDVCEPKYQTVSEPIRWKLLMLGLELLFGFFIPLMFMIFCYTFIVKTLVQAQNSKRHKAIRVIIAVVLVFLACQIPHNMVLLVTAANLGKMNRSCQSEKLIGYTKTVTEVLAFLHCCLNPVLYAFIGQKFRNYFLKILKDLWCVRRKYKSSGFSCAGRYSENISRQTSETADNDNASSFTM

What does the source list for `COc1cccc(C(=O)NC2CC3CCCC(C2)N3CC(=O)Nc2ccc(N(C)C)cc2)c1` (stereo not drawn)?
IC50 [1, 4]: > 66.6 µM; IC50 ([1]; CXCR5, run 1): > 66.6 µM; IC50 ([1]; CXCR5, run 2): > 66.6 µM; IC50 [2, 5]: > 80 µM; IC50 ([2]; CXCR6, run 1): > 80 µM; IC50 ([2]; CXCR6, run 2): > 80 µM; IC50 ([2]; CXCR6, run 3): > 80 µM; IC50 ([2]; CXCR6, run 4): > 80 µM; IC50 [3, 6]: > 80 µM; IC50 ([3]; CCR6, run 1): > 80 µM; IC50 ([3]; CCR6, run 2): > 80 µM; IC50 ([3]; CCR6, run 3): > 80 µM; IC50 ([3]; CCR6, run 4): > 80 µM

Which results are given for `O=C(CN1C2CCCC1CC(NC(=O)c1ccccc1)C2)Nc1ccccc1` (stereo not drawn)?
IC50 [1, 4]: > 66.6 µM; IC50 ([1]; CXCR5, run 1): > 66.6 µM; IC50 ([1]; CXCR5, run 2): > 66.6 µM; IC50 [2, 5]: > 80 µM; IC50 ([2]; CXCR6, run 1): > 80 µM; IC50 ([2]; CXCR6, run 2): > 80 µM; IC50 ([2]; CXCR6, run 3): > 80 µM; IC50 ([2]; CXCR6, run 4): > 80 µM; IC50 [3, 6]: > 80 µM; IC50 ([3]; CCR6, run 1): > 80 µM; IC50 ([3]; CCR6, run 2): > 80 µM; IC50 ([3]; CCR6, run 3): > 80 µM; IC50 ([3]; CCR6, run 4): > 80 µM

How did the IC50 [1, 4] turn out when `COc1cccc(C(=O)NC2CC3CCCC(C2)N3CC(=O)Nc2ccccc2C(F)(F)F)c1` (stereo not drawn) was run?
The IC50 was > 66.6 µM.

And the IC50 ([1]; CXCR5, run 1)?
The IC50 was > 66.6 µM.

And the IC50 ([1]; CXCR5, run 2)?
Its IC50 is > 66.6 µM.

And the IC50 [2, 5]?
The IC50 was > 80 µM.

And the IC50 ([2]; CXCR6, run 1)?
The IC50 was > 80 µM.

And the IC50 ([2]; CXCR6, run 2)?
The IC50 was > 80 µM.

And the IC50 ([2]; CXCR6, run 3)?
The IC50 was > 80 µM.

And the IC50 ([2]; CXCR6, run 4)?
The IC50 was > 80 µM.

What about the IC50 [3, 6] of the same compound?
Its IC50 is > 80 µM.

And the IC50 ([3]; CCR6, run 1)?
The IC50 was > 80 µM.

And the IC50 ([3]; CCR6, run 2)?
Its IC50 is > 80 µM.

And the IC50 ([3]; CCR6, run 3)?
The IC50 was > 80 µM.

And the IC50 ([3]; CCR6, run 4)?
The IC50 was > 80 µM.

What does the source list for `CN(C)c1ccc(NC(=O)CN2C3CCCC2CC(NC(=O)c2ccccc2)C3)cc1` (stereo not drawn)?
IC50 [1, 4]: > 66.6 µM; IC50 ([1]; CXCR5, run 1): > 66.6 µM; IC50 ([1]; CXCR5, run 2): > 66.6 µM; IC50 [2, 5]: > 80 µM; IC50 ([2]; CXCR6, run 1): > 80 µM; IC50 ([2]; CXCR6, run 2): > 80 µM; IC50 ([2]; CXCR6, run 3): > 80 µM; IC50 ([2]; CXCR6, run 4): > 80 µM; IC50 [3, 6]: > 80 µM; IC50 ([3]; CCR6, run 1): > 80 µM; IC50 ([3]; CCR6, run 2): > 80 µM; IC50 ([3]; CCR6, run 3): > 80 µM; IC50 ([3]; CCR6, run 4): > 80 µM

Which results are given for `O=C(CN1C2CCCC1CC(NC(=O)c1ccccc1)C2)Nc1ccccc1C(F)(F)F` (stereo not drawn)?
IC50 [1, 4]: > 66.6 µM; IC50 ([1]; CXCR5, run 1): > 66.6 µM; IC50 ([1]; CXCR5, run 2): > 66.6 µM; IC50 [2, 5]: > 80 µM; IC50 ([2]; CXCR6, run 1): > 80 µM; IC50 ([2]; CXCR6, run 2): > 80 µM; IC50 ([2]; CXCR6, run 3): > 80 µM; IC50 ([2]; CXCR6, run 4): > 80 µM; IC50 [3, 6]: > 80 µM; IC50 ([3]; CCR6, run 1): > 80 µM; IC50 ([3]; CCR6, run 2): > 80 µM; IC50 ([3]; CCR6, run 3): > 80 µM; IC50 ([3]; CCR6, run 4): > 80 µM

What does the source list for `COc1cc(C(=O)NC2CC3CCCC(C2)N3CC(=O)Nc2ccccc2)cc(OC)c1OC` (stereo not drawn)?
IC50 [1, 4]: > 66.6 µM; IC50 ([1]; CXCR5, run 1): > 66.6 µM; IC50 ([1]; CXCR5, run 2): > 66.6 µM; IC50 [2, 5]: 14.3 µM; IC50 ([2]; CXCR6, run 1): 4.79 µM; IC50 ([2]; CXCR6, run 2): 5.96 µM; IC50 ([2]; CXCR6, run 3): 5.86 µM; IC50 ([2]; CXCR6, run 4): 40.6 µM; IC50 [3, 6]: > 80 µM; IC50 ([3]; CCR6, run 1): > 80 µM; IC50 ([3]; CCR6, run 2): > 80 µM; IC50 ([3]; CCR6, run 3): > 80 µM; IC50 ([3]; CCR6, run 4): > 80 µM
